Assay [1] has as its system Palmer Amaranth. Put plainly: Field test in Roundup Ready soybeans: residual control of Palmer Amaranth, reading 21 DAT. Type of assay: in vivo, Amaranthus palmeri. The settings on record: all treatments with MSO 1% v/v, glufosinate 593, pyroxasulfone 90, flumiclorac-pentyl 73 g active/ha, % printed in b55 only. The protocol: (§1) The following field test was conducted. Roundup Ready soybeans (Glycine max) were used in the test as the crop plant. All of the treatments contained MSO concentrate oil at 1% v/v.
(§2) When the test began, the test plot had weeds that were less than […] tall. Treatments were administered at the concentrations as follows. Glufosinate-ammonium was administered at 593 grams/hectare. Pyroxasulfone was administered at 90 grams/hectare throughout the experiment.
(§3) On 14 DAT, readings were taken to determine the survival of Palmer Amaranth. On 21 DAT, readings were taken to determine the residual control of Palmer Amaranth and Horseweed. Survival ratings were taken by counting the number of alive and dead plants at the time of the reading. All data was analyzed using Bartlett's test and with p value of […] for determining significance of the results. The Effect of Glufosinate and Pyroxasulfone on Weeds.”

The test system of assay [2] is Palmer Amaranth. Put plainly: Field test in Roundup Ready soybeans: control (kill) of emerged Palmer Amaranth, reading 14 DAT. Type of assay: in vivo, Amaranthus palmeri. The settings on record: post emergence, all treatments with MSO 1% v/v, glufosinate 593, pyroxasulfone 90, flumiclorac-pentyl 73 g active/ha, % printed in b55 only. On the procedure:
as §1, §2, §3

The subject of another assay is Horseweed. Put plainly: Field test in Roundup Ready soybeans: control of Horseweed, reading 21 DAT. Type of assay: in vivo, Conyza Canadensis. To be noted: all treatments with MSO 1% v/v, glufosinate 593, pyroxasulfone 90, flumiclorac-pentyl 73 g active/ha, % printed in b55 only. On the procedure: as §1, §2, §3

Turning to `Cn1nc(C(F)(F)F)c(CS(=O)(=O)C2=NOC(C)(C)C2)c1OC(F)F` [pyroxasulfone, 3-[[[5-(difluoromethoxy)-1-methyl-3 (trifluoromethyl)-1H-pyrazol-4-yl]methyl]sulfonyl]-4,5-dihydro-5,5-dimethylisoxazole], the “Residual control of Palmer amaranth” value with Palmer Amaranth [1] came to 99%. In addition, in the assay on Palmer Amaranth [2], the “Palmer amaranth (<2″ tall) control / kill rate” value came to 5%.

As for `CP(=O)(O)CCC(N)C(=O)O` (racemic) [glufosinate, DL-4-[hydroxy](methyl)phosphinoyl]-DL-homoalaninate], in the assay with Palmer Amaranth [1], the “Residual control of Palmer amaranth” value turned out to be 93%. Further, in the assay on Palmer Amaranth [2], the “Palmer amaranth (<2″ tall) control / kill rate” value was determined as 90%. The “Horseweed (bolted) control / kill rate” value in the assay with Horseweed is recorded as 75%.

Source of the values: patent US9750259B2, “Pyroxasulfone and glutamine synthesis inhibitor compositions for weed control” (Valent U.S.A., priority 2014, dated 2017).
